Test results from PubChem BioAssay (NCI).
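In this assay, cells in 96-well plates receive the compound at five concentrations for 48 hours. Endpoints are linearly interpolated between the surrounding concentrations. GI50 marks 50% less growth. TGI marks complete inhibition of growth.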

Key:
Test in all cases: NCI tumour cell line growth inhibition, 48 h
EKVX NSCLC = tested on: EKVX NSCLC
K-562 leukemia = tested on: K-562 leukemia
M14 melanoma = tested on: M14 melanoma
NCI-H522 lung = tested on: NCI-H522 lung
OVCAR-4 ovarian = tested on: OVCAR-4 ovarian
SK-MEL-28 melanoma = tested on: SK-MEL-28 melanoma
SK-MEL-5 melanoma = tested on: SK-MEL-5 melanoma
SW-620 colon = tested on: SW-620 colon
UACC-62 melanoma = tested on: UACC-62 melanoma
CAKI-1 renal = tested on: CAKI-1 renal

| Structure (SMILES) | TGI (EKVX NSCLC) [µM] | TGI (K-562 leukemia) [µM] | TGI (M14 melanoma) [µM] | TGI (NCI-H522 lung) [µM] | TGI (OVCAR-4 ovarian) [µM] | TGI (SK-MEL-28 melanoma) [µM] | TGI (SK-MEL-5 melanoma) [µM] | TGI (SW-620 colon) [µM] | TGI (UACC-62 melanoma) [µM] | GI50 (CAKI-1 renal) [µM] | TGI (CAKI-1 renal) [µM] | GI50 (EKVX NSCLC) [µM] | GI50 (K-562 leukemia) [µM] | GI50 (M14 melanoma) [µM] | GI50 (NCI-H522 lung) [µM] | GI50 (OVCAR-4 ovarian) [µM] | GI50 (SK-MEL-5 melanoma) [µM] | GI50 (SW-620 colon) [µM] | GI50 (UACC-62 melanoma) [µM] | GI50 (SK-MEL-28 melanoma) [µM] |
| --- | --- | --- | --- | --- | --- | --- | --- | --- | --- | --- | --- | --- | --- | --- | --- | --- | --- | --- | --- | --- |
| COC(=O)/C(=N\NC(N)=S)C(C#N)c1ccccc1 (centres undefined) | > 100 | > 100 | > 100 | > 100 | > 100 | > 100 | > 100 | > 100 | > 100 | – | – | – | – | – | – | – | – | – | – | – |
| CC1CC2(C)CC(=O)C1C1C(=O)N(CCN3CCCCC3)C(=O)C12 (centres undefined) | > 100 | > 100 | > 100 | > 100 | > 100 | – | > 100 | > 100 | > 100 | > 100 | > 100 | > 100 | > 100 | > 100 | > 100 | > 100 | > 100 | > 100 | > 100 | – |
| CC(=O)N(Cc1ccccc1)c1ccccc1I(=O)=O | > 100 | 29.5 | – | > 100 | > 100 | > 100 | > 100 | 91.9 | > 100 | 42.2 | > 100 | 88.5 | 14 | – | 22.4 | 65.4 | 33.6 | 29.4 | > 100 | 34.5 |
| Cc1ccc(NC(=O)CC(=O)N2N=C(N(CCC#N)c3cccc(C)c3)CC2c2ccccc2)cc1 (centres undefined) | > 100 | > 100 | > 100 | > 100 | > 100 | > 100 | > 100 | > 100 | > 100 | – | – | – | – | – | – | – | – | – | – | – |
| O=C1CN(/N=C/c2ccc(-c3ccc(F)cc3)o2)C(=O)N1 | > 100 | > 100 | > 100 | 85 | – | 83.6 | > 100 | > 100 | > 100 | – | > 100 | – | – | – | – | – | – | – | – | – |
| Cc1nc(-n2nc(-c3ccccc3)cc2-c2ccccc2)sc1C(/C=C/c1ccc([N+](=O)[O-])cc1)=N/NC(=O)c1ccncc1 | > 100 | > 100 | 50.7 | – | – | 99.2 | 63.7 | > 100 | 81.1 | – | – | – | – | – | – | – | – | – | – | – |
| CN1CCc2c1nc(-c1ccc([N+](=O)[O-])cc1)c1c2N(C)CC1 | > 100 | > 100 | > 100 | – | > 100 | – | > 100 | > 100 | > 100 | – | > 100 | – | – | – | – | – | – | – | – | – |
| CC1OC(OC2CCC3(C=O)C4CCC5(C)C(C6=CC(=O)OC6)CCC5(O)C4CCC3(O)C2)C(O)C(O)C1O (centres undefined) | 3.38e-05 | 0.000263 | – | 4.41e-05 | 3.33e-05 | 0.000135 | – | 8.69e-05 | 0.000127 | – | 4.15e-05 | – | – | – | – | – | – | – | – | – |
| CCOc1cc(-c2ccc[nH]2)[nH]c1/C=C1\N=C(C)C(C(=O)OC)=C1C | 2.3 | – | 1.18 | 0.318 | 1.45 | 0.9 | 0.0293 | 1.55 | 0.0581 | 0.0331 | 0.194 | 0.235 | – | 0.0348 | 0.0561 | 0.0449 | < 0.0133 | 0.0321 | 0.024 | 0.143 |
| OCNCCNc1nc2ccccc2c2[nH]c3ccccc3c12 | 3.25 | 42.8 | – | > 50 | – | 6.84 | 4.09 | 2.22 | 7.5 | 2.01 | 7.38 | 1.18 | 1.55 | – | 1.55 | – | 1.28 | 0.366 | 2 | 1.01 |
| CCSC(SCC)=C1C(=O)N(c2ccccc2)N=C1C | 28.5 | 23.3 | 29.7 | 5.05 | – | 26.5 | 33.1 | 20.3 | 28 | – | 15.8 | – | – | – | – | – | – | – | – | – |
| COc1cc(NC(=O)Nc2cnc(Nc3ccc(N4CCOCC4)cc3)nc2Oc2cccc(OC)c2)cc(OC)c1 | 24.5 | – | 9.2 | 6.25 | 2.69 | 6.21 | 2.65 | > 50 | 4.04 | – | – | 2.17 | – | 1.85 | 1.44 | 1.13 | 1.13 | 2.99 | 1.35 | 1.61 |
| CCCCCCCCCCCCCc1nn[nH]n1 | 52 | – | 31.5 | 42.6 | 35.4 | 31.7 | 32.5 | 41.4 | 34.6 | – | – | – | – | – | – | – | – | – | – | – |
| COc1cc2c(c(OC)c1OC)-c1ccc(SC)c(=O)cc1[C@@H](NC(=O)c1ccc(Cl)cc1)CC2 | – | > 100 | 2.3 | – | > 100 | > 100 | < 0.01 | 41.3 | 56.3 | – | – | – | – | – | – | – | – | – | – | – |
| CSC1=NCC2(S1)c1ccccc1N(C(=O)OC(C)(C)C)C2N1CCCCC1 (centres undefined) | > 100 | > 100 | > 100 | > 100 | > 100 | > 100 | > 100 | > 100 | > 100 | – | – | > 100 | 73.8 | > 100 | 27.5 | > 100 | > 100 | > 100 | 76.6 | > 100 |
| CN1CCN(c2nc(-c3ccncc3)nc3sc4c(c23)CCCCCC4)CC1 | – | 16.3 | 18 | 24.6 | 28 | 25.1 | 20.5 | 25.6 | 24 | 3.44 | 19.4 | – | 3.53 | 5.32 | 12 | 12.7 | 7.94 | 11.9 | 11 | 12.5 |
| COC(=O)CC(C(C(C)=O)C(=O)OCc1ccccc1)N1C(=O)OCC1c1ccccc1 (centres undefined) | > 100 | > 100 | > 100 | – | > 100 | > 100 | > 100 | > 100 | > 100 | – | – | – | – | – | – | – | – | – | – | – |
